Earlier results, collected in paper PMC9098912, “Molecular basis for inhibiting human glucose transporters by exofacial inhibitors” (Nature Communications, 2022).
“Also recorded” adds a separate entry of the source.

How the values were obtained:
[1] = biological target: T1, human glucose transporter GLUT1(N45T) (Homo sapiens, UniProt P11166, N45T); details: 50 mM maltose, cited from earlier work
T1 construct: made in house
T1 sequence (P11166 1-492 N45T): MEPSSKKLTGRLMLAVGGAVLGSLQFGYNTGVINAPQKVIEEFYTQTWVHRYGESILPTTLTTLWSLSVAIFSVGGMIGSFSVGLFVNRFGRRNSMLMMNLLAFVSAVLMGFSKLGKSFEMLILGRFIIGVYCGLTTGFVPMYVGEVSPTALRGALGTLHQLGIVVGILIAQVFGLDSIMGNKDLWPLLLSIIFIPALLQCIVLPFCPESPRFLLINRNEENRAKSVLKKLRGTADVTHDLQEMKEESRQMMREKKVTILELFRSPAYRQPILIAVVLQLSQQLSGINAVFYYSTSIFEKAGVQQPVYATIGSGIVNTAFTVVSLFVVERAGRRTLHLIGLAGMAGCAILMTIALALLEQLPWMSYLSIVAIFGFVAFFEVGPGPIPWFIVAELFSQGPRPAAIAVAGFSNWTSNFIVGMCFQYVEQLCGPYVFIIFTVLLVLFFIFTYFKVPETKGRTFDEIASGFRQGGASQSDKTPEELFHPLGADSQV

human GLUT3(N43T) = biological target: T2, human GLUT3(N43T) (Homo sapiens, UniProt P11169, N43T); details: 50 mM maltose, cited from earlier work
T2 construct: His10 (N); made in house; host or cells: Sf9 insect cells (baculovirus)
T2 sequence (P11169 1-496 N43T): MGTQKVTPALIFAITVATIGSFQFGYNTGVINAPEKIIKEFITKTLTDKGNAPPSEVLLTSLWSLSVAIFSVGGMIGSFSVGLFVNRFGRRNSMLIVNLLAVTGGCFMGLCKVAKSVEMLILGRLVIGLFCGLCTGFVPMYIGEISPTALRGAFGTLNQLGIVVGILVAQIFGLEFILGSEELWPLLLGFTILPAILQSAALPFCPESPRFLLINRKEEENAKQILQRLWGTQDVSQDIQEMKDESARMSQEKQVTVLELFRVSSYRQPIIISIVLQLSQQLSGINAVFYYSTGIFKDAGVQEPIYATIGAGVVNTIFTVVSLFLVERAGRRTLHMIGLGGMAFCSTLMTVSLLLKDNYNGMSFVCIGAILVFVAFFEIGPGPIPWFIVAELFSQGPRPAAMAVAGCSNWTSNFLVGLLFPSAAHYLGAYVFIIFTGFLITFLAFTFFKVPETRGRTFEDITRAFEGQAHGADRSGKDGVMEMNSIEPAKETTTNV

GLUT3 = system: GLUT3; design: method as in PMID 12792024; details: cited from earlier work
GLUT1 = system: GLUT1; design: method as in Siebeneicher et al., 2016; details: SAR of Bayer compounds; ref Siebeneicher et al., 2016; cited from earlier work
GLUT1/3 over GLUT2 = system: GLUT1/3 over GLUT2; design: method as in Siebeneicher et al., 2016; details: ref Siebeneicher et al., 2016; cited from earlier work

OC[C@H]1O[C@H](O[C@H]2[C@H](O)[C@@H](O)C(O)O[C@@H]2CO)[C@H](O)[C@@H](O)[C@@H]1O (mixture of isomers) [maltose]
Inhibition of glucose transport ([1]; ref 18 (Deng et al., 2015)): could not be completely blocked; also recorded: cannot completely inhibit | Preserved transport activity ([1]; ref Deng et al., 2015): one third | Inhibition of glucose transport (human GLUT3(N43T); ref 18 (Deng et al., 2015)): could not be completely blocked; also recorded: cannot completely inhibit | Preserved transport activity (human GLUT3(N43T); ref Deng et al., 2015): one quarter

C=CCCCCCCCCCO[C@H]1[C@H](O)[C@@H](CO)OC(O)[C@@H]1O (stereo partly shown) [C3361]
GLUT3 inhibition (GLUT3): weak inhibitor

COc1ccc(F)cc1N1CCN(c2ncnc3c2cnn3-c2ccccc2)CC1 [cmpd 15]
GLUT1 potency (GLUT1): favors GLUT1 association | Selectivity (GLUT1/3 over GLUT2): selective inhibition to GLUT1/3 over GLUT2
